In patent US9034878B2, “Treatment of diseases” (Ampio Pharmaceuticals, Inc., priority 2010, dated 2015):
Where “and” joins values, the source holds several entries; their conditions need not be identical. Identical values can stand only once.

Legend:
endothelial cells = details: provisional application No. 61/380,404; cited from earlier work
[1] = test system: Peripheral blood mononuclear cells (PBMC); assay: PBMC CD69 expression by flow cytometry after OKT3 stimulation (ex vivo); format: cell-based, human; details: single individual
Protocol: • 1. Two human male volunteers and one human volunteer (respectively) were administered 100 mg of DA-DKP (packed in a gelatin capsule) orally on an empty stomach after overnight fasting. The DA-DKP was composed of L-aspartic acid and L-alanine. • 2. Venous blood samples were drawn into heparinized and EDTA vacutainers at baseline (time zero), 2 hours (hrs), 4 hrs and 24 hrs after the ingestion of the DA-DKP. • 3. Blood samples were analyzed for a complete blood count (CBC) and a biochemical survey, including plasma lipids at baseline and at the 24 hrs time points. […] Peripheral blood monocytes (PBMC) from heparinized bloods were extracted by Ficoll gradient method and analyzed by flow cytometry. […] Urines were collected for 24 hrs and volumes were recorded. DA-DKP levels were also measured by LCMS. • 6. […] Urine levels of DA-DKP were calculated (see Table 2). • 6. Saliva DA-DKP levels were calculated (see Table 2) • 7. […]
Peripheral blood mononuclear cells (PBMC) were isolated from peripheral blood, and 2,000,000 cells were cultured in DMEM medium with 10% human AB serum plus 2% (final concentration) of anti-T-cell receptor complex antibody OKT3. […] After culture overnight at 37° C. cells were washed, incubated with an anti-CD69 antibody, fixed and analyzed on the flow cytometer for CD69 expression. […]

MAPK = details: reference 12; cited from earlier work
T-cells = details: U.S. Pat. Nos. 6,555,543 and 7,732,403; cited from earlier work
interleukin-6 (IL-6) = assay: IL-6 ELISA of preadipocyte culture media; format: cell-based; details: after the 2 week differentiation period (data not shown)
Protocol: 7-day old medium was aspirated and cells were dosed with DA-DKP (doses used in PGM-2 media: 25, 50, or 100 μM) in triplicate on two plates. The DA-DKP was composed of L-aspartic acid and L-alanine. PGM-2 differentiation media (containing insulin, dexamethasone, indomethacin, and isobutyl-methylxanthine; Lonza) was added to one plate, while PGM-2 media was added to the other. Plates were then placed back in culture and allowed to incubate for 14 days.
After the 14 day incubation period, culture media were collected from all wells and stored at −20° C. for IL-6 ELISA (see below). Wells were rinsed once with 1×PBS (Lonza). 50 μL M-PER lysis solution (Thermo Scientific, Rockford, Ill.) were added to all wells, and complete cell lysis was achieved by mixing each well. 150 μL 1×PBS was added to each well. 5 μL AdipoRed™ Reagent (Lonza) was added to each well, and the plate was mixed immediately by gentle tapping. After 10 minutes, fluorescence was measured on a plate reader set at λEX=485 nm and λEM=572 nm.
Enzyme-linked immunosorbent assay (ELISA) matched-pair antibodies for interleukin-6 (IL-6) were obtained from Thermo Scientific (Rockford, Ill.). IL-6 was analyzed by ELISA and performed according to the manufacturer's instructions. A 1:10 dilution of each supernatant was measured in duplicate using an IL-6 standard (Thermo Scientific, Rockford, Ill.).

platelets = details: U.S. Pat. Nos. 6,555,543 and 7,732,403; cited from earlier work
[2] = Plasma lipids after a single oral dose of DA-DKP in human volunteers; format: in vivo; details: 100 mg oral; all three subjects
Protocol: (§1) • 1. Two human male volunteers and one human volunteer (respectively) were administered 100 mg of DA-DKP (packed in a gelatin capsule) orally on an empty stomach after overnight fasting. The DA-DKP was composed of L-aspartic acid and L-alanine. • 2. Venous blood samples were drawn into heparinized and EDTA vacutainers at baseline (time zero), 2 hours (hrs), 4 hrs and 24 hrs after the ingestion of the DA-DKP. • 3. Blood samples were analyzed for a complete blood count (CBC) and a biochemical survey, including plasma lipids at baseline and at the 24 hrs time points. Plasma was also used for measurement of the level of DA-DKP by a liquid chromatography mass spectrometer (LCMS) method (protocol and results given below). • 4. Peripheral blood monocytes (PBMC) from heparinized bloods were extracted by Ficoll gradient method and analyzed by flow cytometry. The protocol and results are given below. • 5. Urines were collected for 24 hrs and volumes were recorded. DA-DKP levels were also measured by LCMS. • 6. Saliva at 2 hrs was tested for the presence of DA-DKP by LCMS. Summary of Results: • 1. CBC's were unchanged and remained within the normal range. • 2. […] Urine levels of DA-DKP were calculated (see Table 2). • 6. Saliva DA-DKP levels were calculated (see Table 2) • 7. […]

[3] = test system: Subcutaneous preadipocytes; assay: Adipogenesis assay (AdipoRed fluorescence); format: cell-based; details: 14 days differentiation
Protocol: Subcutaneous preadipocytes (Zen-Bio, Inc., Research Triangle Park, N.C.) were cultured to near confluency at 5% CO2, 37° C. in Preadipocyte Growth Medium-2 (PGM-2, Lonza, Walkersville, Md.) containing 10% fetal bovine serum (FBS), L-glutamine, and GA-1000. Cells were harvested using trypsin/EDTA (Lonza) and initially seeded in 96-well black/clear bottom plates at 3,000 cells/well. Cells were allowed to form a confluent monolayer for 7 days in culture.
7-day old medium was aspirated and cells were dosed with DA-DKP (doses used in PGM-2 media: 25, 50, or 100 μM) in triplicate on two plates. The DA-DKP was composed of L-aspartic acid and L-alanine. […]
After the 14 day incubation period, culture media were collected from all wells and stored at −20° C. for IL-6 ELISA (see below). […] After 10 minutes, fluorescence was measured on a plate reader set at λEX=485 nm and λEM=572 nm.
The triplicate fluorescent values for each treatment were averaged and subtracted from the average media only (i.e. no cells) wells. For the differentiated wells, a % change was calculated by subtracting the average fluorescent value for the differentiated cells from the undifferentiated cells for each treatment group. […] All data are expressed as ±SD. […]

[4] = test system: vascular endothelial barrier; details: provisional application No. 61/380,404; cited from earlier work
[5] = Effects noticed by subjects after oral DA-DKP (appetite, analgesia, side effects); format: in vivo, human; details: 100 mg oral
Protocol: (§2) • 1. Two human male volunteers and one human volunteer (respectively) were administered 100 mg of DA-DKP (packed in a gelatin capsule) orally on an empty stomach after overnight fasting. The DA-DKP was composed of L-aspartic acid and L-alanine. • 2. Venous blood samples were drawn into heparinized and EDTA vacutainers at baseline (time zero), 2 hours (hrs), 4 hrs and 24 hrs after the ingestion of the DA-DKP. • 3. Blood samples were analyzed for a complete blood count (CBC) and a biochemical survey, including plasma lipids at baseline and at the 24 hrs time points. Plasma was also used for measurement of the level of DA-DKP by a liquid chromatography mass spectrometer (LCMS) method (protocol and results given below). • 4. Peripheral blood monocytes (PBMC) from heparinized bloods were extracted by Ficoll gradient method and analyzed by flow cytometry. The protocol and results are given below. • 5. Urines were collected for 24 hrs and volumes were recorded. DA-DKP levels were also measured by LCMS. • 6. Saliva at 2 hrs was tested for the presence of DA-DKP by LCMS. Summary of Results: • 1. CBC's were unchanged and remained within the normal range. • 2. BUN, glucose electrolytes, creatinine, liver function tests, total protein, albumin and calcium were unchanged and within the normal range at 24 hours post ingestion. • 3. […] Urine levels of DA-DKP were calculated (see Table 2). • 6. Saliva DA-DKP levels were calculated (see Table 2) • 7. PBMC results are described below. • 8. Effects noticed by subjects: • a. Significant loss of appetite (lasting 8-9 hrs)—3/3 subjects • b. Slight dry mouth—2/3 subjects • c. Thick saliva—1/3 subjects • d. […] Laxative effect—1/3 subjects • f. Slight drowsiness—1/3 subjects * Analgesic Effect:
One subject had left knee and left Sacroiliac (SI) joint pain. […] The pain originates probably from inflammation caused by sarcoidosis and was 6-7 on a scale of 1-10 before treatment. The effect lasted for about 4 hrs.

[6] = Complete blood count and biochemical survey after oral DA-DKP; format: in vivo; details: 100 mg oral, human
Protocol: as §1

[7] = DA-DKP LCMS measurement in plasma, urine and saliva after oral dose; format: in vivo, human; details: 100 mg oral
Protocol: as §2, with “Venous blood samples were drawn into heparinized and EDTA vacutainers at baseline (time zero), 2 hours (hrs), 4 hrs and 24 hrs after the ingestion of the DA-DKP. • 3.” left out
Plasma or urines were passed through a <5 Kd filter and 50 μl of the flow-through fractions were injected into high performance liquid chromatography (HPLC, 2975 system, Waters, Mass.) coupled to a mass spectrometer (LCT-TOF, Micromass, UK) and DA-DKP was quantified using a strong anion exchange column (Spherisorb, S5 SAX 250 mm×4.0 mm, Waters) and a ternary mobile phase consisting of water, methanol and 200 mM Ammonium Formate (Sigma Aldrich, Mo.), pH 5.4, at 0.5 ml/min flow rate in a gradient as shown in Table A.
The output of the HPLC was split 1:20 (v:v) and injected into the mass spectrometer using negative electrospray ionization (−ESI MS) with a scan range of 80 to 1000 m/z, cone voltage of 30 eV, source temperature of 100° C., and gas temperature of 300° C. DA-DKP was measured by monitoring the mass 185 in time, which corresponds to DA-DKP minus a single proton (—H+). DA-DKP elutes at 10.4 minutes and was quantified by integrating the area under the curve. The area was compared to a standard curve derived from synthetic DA-DKP standards (DMI Synthesis, Newport Wales, UK) of known concentrations (2000 ng/ml, 1000 ng/ml, 400 ng/ml, 200 ng/ml, 100 ng/ml, 20 ng/ml).

## C[C@@H]1NC(=O)[C@H](CC(=O)O)NC1=O [DA-DKP]
Endothelial cells
  Cytoskeletal network in endothelial cells: stabilize
[1]; after DA-DKP ingestion
  Time of greatest effect on CD69 expression: 4 h
[1]; after ingestion of DA-DKP vs time zero, OKT3 stimulation
  CD69 expression on CD45RA and CD45RO cells: decreased
MAPK
  MAPK activity in T-lymphocytes: inhibitory effect
T-cells
  Activation of T-cells: inhibit
interleukin-6 (IL-6)
  Effect on IL-6 levels: no significant effect
platelets
  Aggregation of platelets: inhibit
[2]
  Lipids at 24 hours post ingestion: decreased across the board
[3]; 25 μM
  Effect on adipogenesis: significant decrease
[3]; 100 μM
  Effect on adipogenesis: increase
[4]
  Vascular hyperpermeability: inhibit
[5]; human
  Duration of loss of appetite: 8 to 9 h
  Laxative effect, subjects affected: 1/3
  Significant loss of appetite, subjects affected: 3/3
  Slight drowsiness, subjects affected: 1/3
  Slight dry mouth, subjects affected: 2/3
  Thick saliva, subjects affected: 1/3
[5]; human, others did not have pain
  Analgesic effect, subjects affected: 1/3
[5]; one subject
  Duration of analgesic effect: about 4 hrs
  Reduction of SI joint pain: about 50%
  Time to analgesic effect after ingestion: 1 to 2 h
[5]; one subject, pain 6-7 on a scale of 1-10 before treatment
  Left knee pain: resolved completely
[6]; 24 hours post ingestion, within the normal range
  BUN, glucose electrolytes, creatinine, liver function tests, total protein, albumin and calcium: unchanged
[6]; remained within the normal range
  CBC: unchanged
[7]; human
  DA-DKP plasma level at 24 hrs post ingestion: not detectable
  Time of peak DA-DKP plasma level: about 2 hrs
[7]; 15 min, per human subject
  DA-DKP in plasma, 15 min: 0.14 µM
[7]; 30 min, per human subject
  DA-DKP in plasma, 30 min: 0.35 µM
[7]; 60 min, per human subject
  DA-DKP in plasma, 60 min: 0.84 µM
[7]; 240 min, per human subject
  DA-DKP in plasma, 240 min: 0.25 µM and 0.34 µM
[7]; 360 min, per human subject
  DA-DKP in plasma, 360 min: 0.61 µM
[7]; saliva at 2 hrs, per human subject
  DA-DKP in Saliva 2 hrs: 0.22 µM and 0.29 µM
[7]; urine collected for 24 hrs, per human subject
  DA-DKP in Urine 24 hrs: 4.25 µM and 6.98 µM and 3.52 µM
